Reference: patent US6436929B1 (Wyeth, priority 1999, dated 2002)

melting point	SMILES
221 to 222.5 °C	CC1(C)OC(=S)Nc2ccc(Br)cc21 [Example 10, 6-Bromo-4,4-dimethyl-1,4-dihydro-benzo[d][1,3]oxazin-2-thione]
173 to 174 °C	CC1OC(=S)Nc2ccc(-c3cccc(F)c3)cc21 (stereo not drawn) [Example 15, 6-(3-fluorophenyl)-4-methyl-1,4-dihydro-2H-3,1-benzoxazine-2-thione]
165 to 167 °C	CC(C)(C)OC(=O)n1c(C#N)ccc1-c1ccc2c(c1)C(C)(C)OC(=S)N2 [Example 17, tert-Butyl 2-cyano-5-(4,4-dimethyl-2-thioxo-1,4-dihydro-2H-3,1-benzoxazin-6-yl)-1H-pyrrole-1-carboxylate]
261 to 262 °C	CC1(C)OC(=S)Nc2ccc(-c3ccc(C#N)[nH]3)cc21 [Example 18, 5(4,4-Dimethyl-2-thioxo-1,4-dihydro-2H-3,1-benzoxazin-6-yl)-1H-pyrrole-2-carbonitrile]
215 to 217 °C	CC1(C)OC(=S)Nc2ccc(-c3cccc(CC#N)n3)cc21 [Example 19, [6-(4,4-dimethyl-2-thioxo-1,4-dihydro-2H-3,1-benzoxazin-6-yl)pyridin-2-yl]acetonitrile]
258 to 259 °C	CC1(C)OC(=S)Nc2ccc(-c3cc(C#N)cs3)cc21 [Example 22, 5-(4,4-Dimethyl-2-thioxo-1,4-dihydro-2H-benzo[d][1,3]oxazin-6-yl)thiophene-3-carbonitrile]
225 to 227 °C	N#Cc1cc(-c2ccc3c(c2)C2(CCCCC2)OC(=S)N3)cs1 [Example 23, 4-(1,2-Dihydro-2-thioxospiro[4H-3,1-benzoxazin-4,1-cyclohexan]-6-yl)-2-thiophenecarbonitrile]
212 to 213 °C	CCn1c(C#N)ccc1-c1ccc2c(c1)C(C)(C)OC(=S)N2 [Example 23, 5-(4,4-dimethyl-2-thioxo-1,4-dihydro-2H-3,1-benzoxazin-6-yl)-1-ethyl-1H-pyrrole-2-carbonitrile]
252 to 253 °C	CC1(C)OC(=S)Nc2ccc(-c3cncc(Br)c3)cc21 [Example 26, 6-(5Bromopyridin-3-yl)-4,4-dimethyl-1,4-dihydro-2H-3,1-benzoxazine-2-thione]
183 to 184 °C	Cc1cc(Br)cc(-c2ccc3c(c2)C(C)(C)OC(=S)N3)c1 [Example 28, 6-(3-Bromo-5-methylphenyl)-4,4-dimethyl-1,4-dihydro-2H-3,1-benzoxazine-2-thione]
192 to 193 °C	CC1(C)OC(=S)Nc2ccc(-c3cc(Br)cc(OC(F)(F)F)c3)cc21 [Example 29, 6-(3-Bromo-5trifluoromethoxyphenyl)-4,4-dimethyl-1,4-dihydro-2H-3,1-benzoxazine-2-thione]
235 to 237 °C	N#Cc1cc(F)cc(-c2ccc3c(c2)C2(CCCCC2)OC(=S)N3)c1 [Example 30, 3-(1,2-Dihydro-2-thioxospiro[4H-3,1-benzoxazine-4,1-cyclohexan]-6-yl)-5-fluorobenzonitrile]
230 to 231 °C	Cc1cc(C#N)cc(-c2ccc3c(c2)C(C)(C)OC(=S)N3)c1 [Example 31, 3-(4,4-Dimethyl-2-thioxo-1,4-dihydro-2H-3,1-benzoxazin-6-yl)-5-methylbenzonitrile]
206 to 208 °C	CC1(C)OC(=S)Nc2ccc(-c3cc(Cl)cc(Cl)c3)cc21 [Example 32, 6-(3,5-Dichlorophenyl)-4,4-dimethyl-1,4-dihydro-2H-3,1-benzoxazine-2-thione]
200 °C (dec.)	CC1(C)OC(=S)Nc2ccc(-c3ccc(C#N)o3)cc21 [Example 34, 5-(4,4-Dimethyl-2-thioxo-1,4-dihydro-2H-3,1-benzoxazin-6-yl)-2-furonitrile]
180 to 181 °C	CCC1(CC)OC(=S)Nc2ccc(-c3cccc([N+](=O)[O-])c3)cc21 [Example 35, 4,4Diethyl-6-(3-nitrophenyl)-1,4-dihydro-2H-3,1-benzoxazine2-thione]
202 to 203 °C	CC1(c2ccccc2)OC(=S)Nc2ccc(-c3cccc(Cl)c3)cc21 (stereo not drawn) [Example 36, 6-(3-Chlorophenyl)-4-methyl-4-phenyl-1,4-dihydro-2H-3,1-benzoxazine-2-thione]
150 to 151 °C	C=CCC1(C)OC(=S)Nc2ccc(-c3cccc(Cl)c3)cc21 (stereo not drawn) [Example 37, 4-Allyl-6-(3-chlorophenyl)-4-methyl-1,4-dihydro-2H-3,1-benzoxazine2-thione]
249 to 251 °C	CC1(C)OC(=S)Nc2ccc(-c3cc(Cl)cc(C#N)c3)cc21 [Example 38, 3-Chloro-5-(4,4-dimethyl-2-thioxo-1,4-dihydro-2H-3,1-benzoxazin-6-yl)benzonitrile]
224 to 225 °C	CC1(C)OC(=S)Nc2ccc(-c3cc(F)cc(F)c3)cc21 [Example 39, 6-(3,5-Difluorophenyl)-4,4-dimethyl-1,4-dihydro-2H-3,1-benzoxazine-2-thione]
170 to 171 °C	COc1cc(F)cc(-c2ccc3c(c2)C(C)(C)OC(=S)N3)c1 [Example 40, 6-(3-Fluoro-5methoxyphenyl)-4,4-dimethyl-1,4-dihydro-2H-3,1-benzoxazine-2-thione]

melting point	SMILES
201 to 202 °C	COc1cc(C#N)cc(-c2ccc3c(c2)C(C)(C)OC(=S)N3)c1 [Example 41, 3-(4,4-Dimethyl-2-thioxo-1,4-dihydro2H-3,1-benzoxazin-6-yl)-5-methoxybenzonitrile]
194 to 195 °C	CC1(C)OC(=S)Nc2ccc(-c3cccc(F)c3)cc21 [Example 42, 6-(3-Fluorophenyl)-4,4-dimethyl-1,4-dihydro-2H-3,1-benzoxazine-2-thione]
171 to 173 °C	CC1(C)OC(=S)Nc2ccc(-c3ccccc3F)cc21 [Example 44, 6-(2-Fluorophenyl)-4,4-dimethyl-1,4-dihydro-2H-3,1-benzoxazine-2-thione]
209 to 211 °C	CC1(C)OC(=S)Nc2ccc(-c3ccc(F)c(F)c3)cc21 [Example 45, 6-(3,4-Difluorophenyl)-4,4-dimethyl-1,4-dihydro-2H-3,1-benzoxazine-2-thione]
221 to 223 °C	CC1(C)OC(=S)Nc2ccc(-c3ccc(F)cc3)cc21 [Example 46, 6(4-Fluorophenyl)-4,4-dimethyl-1,4-dihydro-2H-3,1-benzoxazine-2-thione]
197 to 198 °C	CC1(C)OC(=S)Nc2ccc(-c3cccc(F)c3F)cc21 [Example 48, 6-(2,3-Difluorophenyl)-4,4-dimethyl-1,4-dihydro-2H-3,1-benzoxazine-2-thione]
216 to 217 °C	CC1(C)OC(=S)Nc2c(Br)cc(-c3cc(F)cc(C#N)c3)cc21 [Example 49, 3-(8-Bromo-4,4-dimethyl-2-thioxo-1,4-dihydro-2H-3,1-benzoxazin-6-yl)-5-fluorobenzonitrile]
224 to 226 °C	CC1(C)OC(=S)Nc2ccc(-c3cccc([N+](=O)[O-])c3)cc21 [Example 50, 4,4-Dimethyl-6-(3-nitrophenyl)-1,4-dihydro-2H-3,1-benzoxazine-2-thione]
148 to 150 °C	CCC1(CC)OC(=S)Nc2ccc(-c3cccc(Cl)c3)cc21 [Example 51, 6-(3-Chlorophenyl)-4,4-diethyl-1,4-dihydro-2H-3,1-benzoxazine-2-thione]
142 to 143 °C	COc1cccc(-c2ccc3c(c2)C(C)(C)OC(=S)N3)c1 [Example 52, 6-(3-Methoxyphenyl)-4,4-dimethyl-1,4-dihydro-2H-3,1-benzoxazine-2-thione]
171 to 172 °C	CC1(C)OC(=S)Nc2ccc(-c3ccccc3Cl)cc21 [Example 53, 6-(2-Chlorophenyl)-4,4-dimethyl-1,4-dihydro-2H-3,1-benzoxazine-2-thione]
221 to 222 °C	CC1(C)OC(=S)Nc2ccc(-c3cc(F)cc(Br)c3)cc21 [Example 55, 6-(3-Bromo-5-fluorophenyl)-4,4-dimethyl-1,4-dihydro-2H-3,1-benzoxazine-2-thione]
242 to 244 °C	CC1(C)OC(=S)Nc2ccc(-c3ccc(C#N)s3)cc21 [Example 56, 5-(4,4-Dimethyl-2-thioxo-1,4-dihydro-2H-3,1-benzoxazin-6-yl)thiophene-2-carbonitrile]
222 to 224 °C	N#Cc1cccc(-c2ccc3c(c2)C2(CCCCC2)OC(=S)N3)c1 [Example 58, 3(1,2-Dihydro-2-thioxospiro[4H-3,1-benzoxazine4,1-cyclohexan]-6-yl)benzonitrile]
199 to 201 °C	Cc1cc(C#N)sc1-c1ccc2c(c1)C1(CCCCC1)OC(=S)N2 [Example 59, 5-(1,2-Dihydro-2-thioxospiro [4H-3,1-benzoxazine-4,1-cyclohexan]-6-yl)-4-methyl-2-thiophenecarbonitrile]
232 to 233 °C	N#Cc1ccc(-c2ccc3c(c2)C2(CCCCC2)OC(=S)N3)s1 [Example 60, 5-(1,2-Dihydro-2-thioxospiro[4H-3,1-benzoxazine-4,1-cyclohexan]-6yl)-2-thiophenecarbonitrile]
196 to 197 °C	CC1(C)OC(=S)Nc2ccc(-c3ccc(F)c(Cl)c3)cc21 [Example 61, 6-(3-Chloro-4-fluorophenyl)-4,4-dimethyl-1,4-dihydro-2H-3,1-benzoxazine-2-thione]
174 to 175 °C	CCCc1cc(C#N)sc1-c1ccc2c(c1)C(C)(C)OC(=S)N2 [Example 62, 5-(4,4-Dimethyl-2-thioxo-1,4-dihydro-2H-3,1-benzoxazin6-yl)-4-propylthiophene2-carbonitrile]
214 to 216 °C	CC1(C)OC(=S)Nc2ccc(-c3coc(C#N)c3)cc21 [Example 63, 4-(4,4-Dimethyl-2-thioxo-1,4-dihydro-2H-3,1-benzoxazin-6-yl)-2-furonitrile]
174 to 175 °C	CCCCc1cc(C#N)sc1-c1ccc2c(c1)C(C)(C)OC(=S)N2 [Example 64, 4-Butyl-5-(4,4-dimethyl-2-thioxo-1,4-dihydro-2H-3,1-benzoxazin-6-yl)thiophene-2-carbonitrile]
191 to 193 °C	CC1(C)OC(=S)Nc2ccc(-c3cccc(Br)c3)cc21 [Example 65, 6-(3-Bromophenyl)-4,4-dimethyl-1,4-dihydro-2H-3,1-benzoxazine-2-thione]
